Assay results as given in PubChem BioAssay (NCI).
Values joined by “and” are separate entries in the source; they are usually repeats but may differ in a detail not shown here. Equal entries are not always repeated.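 Exposure lasted 48 hours, with cells grown in 96-well plates and compounds tested at five concentrations. The concentration for 50% growth inhibition is given as GI50. TGI: total growth inhibition.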

Assays:
Experiment in all cases: DTP human tumour cell line panel, 48 h
[1] = tested on: BT-549 breast
[2] = tested on: HOP-92 NSCLC
[3] = tested on: NCI-H460 lung
[4] = tested on: UO-31 renal
[5] = tested on: NCI-H522 lung
[6] = tested on: IGROV1 ovarian
[7] = tested on: MDA-MB-231 breast
[8] = tested on: U251 CNS
[9] = tested on: A498 renal
[10] = tested on: SF-539 CNS
[11] = tested on: SF-295 CNS
[12] = tested on: SK-MEL-2 melanoma
[13] = tested on: NCI/ADR-RES ovarian
[14] = tested on: NCI-H23 lung
[15] = tested on: A549 NSCLC
[16] = tested on: EKVX NSCLC
[17] = tested on: T-47D breast
[18] = tested on: SR leukemia
[19] = tested on: COLO 205 colon
[20] = tested on: UACC-62 melanoma
[21] = tested on: SK-OV-3 ovarian
[22] = tested on: HOP-62 NSCLC
[23] = tested on: OVCAR-8 ovarian
[24] = tested on: CAKI-1 renal
[25] = tested on: OVCAR-3 ovarian
[26] = tested on: MDA-MB-435
[27] = tested on: OVCAR-5 ovarian
[28] = tested on: SK-MEL-5 melanoma
[29] = tested on: SW-620 colon
[30] = tested on: LOX IMVI melanoma
[31] = tested on: SNB-75 CNS
[32] = tested on: K-562 leukemia
[33] = tested on: KM12 colon
[34] = tested on: ACHN renal
[35] = tested on: SNB-19 CNS
[36] = tested on: SF-268 CNS
[37] = tested on: 786-0 renal
[38] = tested on: SN12C renal
[39] = tested on: CCRF-CEM leukemia
[40] = tested on: HCT-116 colon
[41] = tested on: MALME-3M melanoma
[42] = tested on: SK-MEL-28 melanoma
[43] = tested on: HCT-15 colon
[44] = tested on: MCF7 breast
[45] = tested on: RXF 393 renal
[46] = tested on: TK-10 renal
[47] = tested on: M14 melanoma
[48] = tested on: RPMI-8226 leukemia
[49] = tested on: UACC-257 melanoma
[50] = tested on: NCI-H226 lung
[51] = tested on: HT29 colon
[52] = tested on: HL-60(TB) leukemia
[53] = tested on: HS 578T breast
[54] = tested on: PC-3 prostate
[55] = tested on: OVCAR-4 ovarian
[56] = tested on: DU-145 prostate
[57] = tested on: MOLT-4 leukemia
[58] = tested on: HCC-2998 colon

COc1cc2nc(-c3cccs3)[nH]c(=O)c2cc1OC
TGI [1]: > 100000 nM | TGI [2]: > 100000 nM | TGI [3]: > 100000 nM | TGI [4]: > 100000 nM | TGI [5]: > 100000 nM | TGI [6]: > 100000 nM | TGI [7]: > 100000 nM | TGI [8]: > 100000 nM | TGI [9]: > 100000 nM | TGI [10]: > 100000 nM | TGI [11]: > 100000 nM | TGI [12]: > 100000 nM | TGI [13]: > 100000 nM | TGI [14]: > 100000 nM | TGI [15]: > 100000 nM | TGI [16]: > 100000 nM | TGI [17]: > 100000 nM | TGI [18]: 58400 nM | TGI [19]: > 100000 nM | TGI [20]: > 100000 nM | TGI [21]: > 100000 nM | TGI [22]: > 100000 nM | TGI [23]: > 100000 nM | TGI [24]: > 100000 nM | TGI [25]: > 100000 nM | TGI [26]: > 100000 nM | TGI [27]: > 100000 nM | TGI [28]: > 100000 nM | TGI [29]: > 100000 nM | TGI [30]: > 100000 nM | TGI [31]: > 100000 nM | TGI [32]: > 100000 nM | TGI [33]: > 100000 nM | TGI [34]: > 100000 nM | TGI [35]: > 100000 nM | TGI [36]: > 100000 nM | TGI [37]: > 100000 nM | TGI [38]: > 100000 nM | TGI [39]: > 100000 nM | TGI [40]: > 100000 nM | TGI [41]: > 100000 nM | TGI [42]: > 100000 nM | TGI [43]: > 100000 nM | TGI [44]: > 100000 nM | TGI [45]: > 100000 nM | TGI [46]: > 100000 nM | TGI [47]: > 100000 nM | TGI [48]: > 100000 nM | TGI [49]: > 100000 nM | TGI [50]: > 100000 nM | TGI [51]: > 100000 nM | TGI [52]: > 100000 nM | TGI [53]: > 100000 nM | TGI [54]: > 100000 nM | TGI [55]: > 100000 nM | TGI [56]: > 100000 nM

CC[C@H](C)[C@H](NC(=O)[C@H]1CCCCN1C)C(=O)N(C)[C@H](C[C@@H](OC(C)=O)c1nc(C(=O)N[C@@H](Cc2ccccc2)C[C@H](C)C(=O)O)cs1)C(C)C
GI50 [57]: 3.76 nM and 1.65 nM | TGI [57]: > 16500 nM | GI50 [1]: 0.676 nM and < 1.65 nM | GI50 [2]: 7240 nM | TGI [2]: > 16500 nM | GI50 [3]: 0.369 nM and 1.65 nM | TGI [3]: > 16500 nM | GI50 [4]: 7.88 nM and 1.65 nM | TGI [4]: > 16500 nM | GI50 [5]: 0.347 nM and < 1.65 nM | TGI [5]: 13.3 nM and < 1.65 nM | GI50 [6]: 6.04 nM and 1.65 nM | TGI [6]: > 16500 nM | GI50 [7]: 2.01 nM and 1.65 nM | TGI [7]: > 16500 nM | GI50 [8]: 0.481 nM and 1.65 nM | TGI [8]: > 16500 nM | GI50 [9]: 0.548 nM and < 1.65 nM | TGI [9]: < 1.65 nM | GI50 [10]: 0.576 nM and < 1.65 nM | TGI [10]: 5.96 nM and < 1.65 nM | GI50 [11]: 0.305 nM and < 1.65 nM | TGI [11]: 2.82 nM and < 1.65 nM | GI50 [12]: 0.7 nM | GI50 [13]: 4.73 nM and 1.65 nM | GI50 [14]: 0.887 nM and 1.65 nM | TGI [14]: > 16500 nM | GI50 [15]: 1.53 nM and 1.65 nM | TGI [15]: > 16500 nM | GI50 [16]: 0.979 nM and 1.65 nM | TGI [16]: > 16500 nM | GI50 [17]: > 16500 nM | TGI [17]: > 16500 nM | GI50 [18]: 0.305 nM and 1.65 nM | TGI [18]: > 16500 nM | GI50 [19]: 0.394 nM | TGI [19]: 2.75 nM | TGI [20]: > 16500 nM | GI50 [21]: 0.807 nM and 1.65 nM | GI50 [22]: 0.909 nM and 1.65 nM | TGI [22]: > 16500 nM | GI50 [23]: 2.97 nM and 1.65 nM | TGI [23]: > 16500 nM | GI50 [24]: 1.97 nM | GI50 [25]: 0.234 nM and < 1.65 nM | TGI [25]: 11.9 nM and < 1.65 nM | GI50 [26]: 0.0749 nM and < 1.65 nM | TGI [26]: 0.386 nM and < 1.65 nM | GI50 [27]: 3.24 nM and 1.65 nM | TGI [27]: > 16500 nM | GI50 [28]: 0.13 nM and < 1.65 nM | TGI [28]: 10.2 nM and < 1.65 nM | GI50 [29]: 0.332 nM and 1.65 nM | TGI [29]: > 16500 nM | GI50 [30]: 0.609 nM and 1.65 nM | TGI [30]: > 16500 nM | GI50 [31]: 0.568 nM and 1.65 nM | TGI [31]: > 16500 nM | GI50 [32]: 0.327 nM and 1.65 nM | TGI [32]: > 16500 nM | GI50 [33]: 0.269 nM and 1.65 nM | GI50 [34]: 4.81 nM and 1.65 nM | TGI [34]: > 16500 nM | GI50 [35]: 0.595 nM and 1.65 nM | TGI [35]: > 16500 nM | GI50 [36]: 0.834 nM and 1.65 nM | TGI [36]: > 16500 nM | GI50 [37]: 0.943 nM and 1.65 nM | TGI [37]: > 16500 nM | GI50 [38]: 3 nM and 1.65 nM | TGI [38]: > 16500 nM | GI50 [39]: 0.392 nM and 1.65 nM | TGI [39]: 2490 nM | GI50 [40]: 0.404 nM and 1.65 nM | TGI [40]: 17 nM | GI50 [42]: 8630 nM | TGI [42]: > 16500 nM | GI50 [43]: 1.33 nM and 1.65 nM | TGI [43]: > 16500 nM | TGI [44]: > 16500 nM | GI50 [45]: 1.65 nM | TGI [45]: > 16500 nM | GI50 [47]: 0.337 nM and < 1.65 nM | TGI [47]: < 1.65 nM | GI50 [48]: 0.264 nM and 1.65 nM | TGI [48]: 6560 nM | GI50 [49]: > 16500 nM | TGI [49]: > 16500 nM | GI50 [50]: 11.3 nM and < 1.65 nM | TGI [50]: < 1.65 nM | GI50 [51]: 0.356 nM and 1.65 nM | TGI [51]: 2 nM | GI50 [52]: 0.394 nM and < 1.65 nM | TGI [52]: 2.67 nM and < 1.65 nM | GI50 [53]: 1.01 nM and 1.65 nM | TGI [53]: > 16500 nM | GI50 [54]: 0.339 nM and 1.65 nM | TGI [54]: > 16500 nM | GI50 [58]: 1.3 nM and 1.65 nM | TGI [58]: > 16500 nM | TGI [55]: > 16500 nM | GI50 [56]: 0.475 nM and 1.65 nM | TGI [56]: 36.7 nM
